Values quoted from earlier work in patent US11066448B2, “Zika as a cell penetrating peptide for delivery to the brain” (priority 2018, dated 2021).

Key:
[1] = enzymatic hydrolysis, doxorubicin release
[2] = human plasma; MMAE linked

Substance | half-life of cleavage [1] [min] | stability relative to Val-Cit [2] | stability relative to hydrazone linker [2]
Phe-Lys | 8 | substantially less stable | 
Val-Lys | 9 |  | 
valine-citrulline [Val-Cit] | 240 |  | over 100 times
